Tests used:
Assay in all cases: biochemical
Set-up in all cases: KINOMEscan active-site competition binding, percent of control (100 = no competition)
Conditions in all cases: competition binding, percent control
CSNK1G1 = CSNK1G1 (Homo sapiens, UniProt Q9HCP0)
OSR1 = biological target: T1, OSR1 (Homo sapiens, UniProt O95747)
T1 construct: gene OXSR1

PIK3CA(E545K) = PIK3CA(E545K) (Homo sapiens, UniProt P42336, E545K)
EGFR(T790M) = EGFR(T790M) (Homo sapiens, UniProt P00533, T790M)
SLK = SLK (Homo sapiens, UniProt Q9H2G2)
LKB1 = biological target: T2, LKB1 (Homo sapiens, UniProt Q15831)
T2 construct: gene STK11

LTK = LTK (Homo sapiens, UniProt P29376)
TGFBR1 = TGFBR1 (Homo sapiens, UniProt P36897)
MYO3B = MYO3B (Homo sapiens, UniProt Q8WXR4)
TNNI3K = TNNI3K (Homo sapiens, UniProt Q59H18)
TNK2 = TNK2 (Homo sapiens, UniProt Q07912)
YANK1 = biological target: T3, YANK1 (Homo sapiens, UniProt Q8WU08)
T3 construct: gene STK32A

CSNK1A1L = CSNK1A1L (Homo sapiens, UniProt Q8N752)
DYRK1A = DYRK1A (Homo sapiens, UniProt Q13627)
MERTK = MERTK (Homo sapiens, UniProt Q12866)
HCK = HCK (Homo sapiens, UniProt P08631)
EPHA4 = EPHA4 (Homo sapiens, UniProt P54764)
EGFR(L747-T751del,Sins) = EGFR(L747-T751del,Sins) (Homo sapiens, UniProt P00533, DEL747-750/T751S)
IRAK3 = IRAK3 (Homo sapiens, UniProt Q9Y616)
BMPR1B = BMPR1B (Homo sapiens, UniProt O00238)
KIT(D816V) = KIT(D816V) (Homo sapiens, UniProt P10721, D816V)
MUSK = MUSK (Homo sapiens, UniProt O15146)
CSNK1E = CSNK1E (Homo sapiens, UniProt P49674)

Sequence of LTK (P29376 whole entry): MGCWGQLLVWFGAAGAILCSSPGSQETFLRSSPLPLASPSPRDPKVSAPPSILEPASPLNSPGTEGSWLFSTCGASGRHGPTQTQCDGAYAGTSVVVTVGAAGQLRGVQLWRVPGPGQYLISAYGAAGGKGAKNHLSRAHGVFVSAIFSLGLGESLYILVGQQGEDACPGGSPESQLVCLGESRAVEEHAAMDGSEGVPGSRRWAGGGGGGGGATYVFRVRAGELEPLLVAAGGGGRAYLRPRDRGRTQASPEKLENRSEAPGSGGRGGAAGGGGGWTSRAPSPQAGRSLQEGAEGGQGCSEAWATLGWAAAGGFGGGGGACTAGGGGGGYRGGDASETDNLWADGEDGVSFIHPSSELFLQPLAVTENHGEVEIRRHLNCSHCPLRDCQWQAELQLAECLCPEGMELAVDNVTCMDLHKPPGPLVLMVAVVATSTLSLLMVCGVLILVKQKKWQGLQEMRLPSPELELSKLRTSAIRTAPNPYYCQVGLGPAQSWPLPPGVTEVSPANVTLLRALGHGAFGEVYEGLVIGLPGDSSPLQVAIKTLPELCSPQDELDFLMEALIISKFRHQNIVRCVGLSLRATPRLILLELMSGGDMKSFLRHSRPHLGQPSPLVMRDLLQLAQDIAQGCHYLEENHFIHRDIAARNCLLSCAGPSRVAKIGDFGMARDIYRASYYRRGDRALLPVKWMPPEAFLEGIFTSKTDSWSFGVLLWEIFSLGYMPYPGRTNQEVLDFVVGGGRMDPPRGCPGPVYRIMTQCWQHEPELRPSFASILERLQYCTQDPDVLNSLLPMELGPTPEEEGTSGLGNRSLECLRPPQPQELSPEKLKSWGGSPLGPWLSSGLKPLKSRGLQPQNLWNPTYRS
Sequence of TNK2 (Q07912 whole entry): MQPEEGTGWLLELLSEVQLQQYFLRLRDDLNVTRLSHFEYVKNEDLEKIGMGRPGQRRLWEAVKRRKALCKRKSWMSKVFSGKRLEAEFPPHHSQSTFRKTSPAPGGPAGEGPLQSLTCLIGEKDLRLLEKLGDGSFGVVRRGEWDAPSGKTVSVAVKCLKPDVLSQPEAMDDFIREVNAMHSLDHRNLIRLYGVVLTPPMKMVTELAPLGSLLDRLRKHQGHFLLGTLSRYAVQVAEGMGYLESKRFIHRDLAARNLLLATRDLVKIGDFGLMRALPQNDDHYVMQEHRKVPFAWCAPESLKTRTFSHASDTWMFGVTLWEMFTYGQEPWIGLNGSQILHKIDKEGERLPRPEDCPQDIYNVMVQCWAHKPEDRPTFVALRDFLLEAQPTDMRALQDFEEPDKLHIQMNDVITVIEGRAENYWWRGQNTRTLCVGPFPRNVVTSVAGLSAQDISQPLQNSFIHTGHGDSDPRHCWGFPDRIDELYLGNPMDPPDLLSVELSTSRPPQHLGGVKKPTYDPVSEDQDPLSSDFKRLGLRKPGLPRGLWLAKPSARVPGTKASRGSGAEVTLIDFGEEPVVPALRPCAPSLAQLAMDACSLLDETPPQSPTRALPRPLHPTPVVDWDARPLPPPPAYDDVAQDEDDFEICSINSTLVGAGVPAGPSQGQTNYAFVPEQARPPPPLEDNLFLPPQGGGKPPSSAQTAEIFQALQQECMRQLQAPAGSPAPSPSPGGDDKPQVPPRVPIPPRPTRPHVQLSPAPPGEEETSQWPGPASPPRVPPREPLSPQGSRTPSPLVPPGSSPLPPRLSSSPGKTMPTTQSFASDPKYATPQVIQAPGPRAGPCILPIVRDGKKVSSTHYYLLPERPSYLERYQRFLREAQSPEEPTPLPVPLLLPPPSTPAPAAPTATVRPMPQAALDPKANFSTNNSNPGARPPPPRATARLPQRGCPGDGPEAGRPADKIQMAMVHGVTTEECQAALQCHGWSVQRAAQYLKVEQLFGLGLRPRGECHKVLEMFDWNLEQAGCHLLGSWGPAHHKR
Sequence of SLK (Q9H2G2 whole entry): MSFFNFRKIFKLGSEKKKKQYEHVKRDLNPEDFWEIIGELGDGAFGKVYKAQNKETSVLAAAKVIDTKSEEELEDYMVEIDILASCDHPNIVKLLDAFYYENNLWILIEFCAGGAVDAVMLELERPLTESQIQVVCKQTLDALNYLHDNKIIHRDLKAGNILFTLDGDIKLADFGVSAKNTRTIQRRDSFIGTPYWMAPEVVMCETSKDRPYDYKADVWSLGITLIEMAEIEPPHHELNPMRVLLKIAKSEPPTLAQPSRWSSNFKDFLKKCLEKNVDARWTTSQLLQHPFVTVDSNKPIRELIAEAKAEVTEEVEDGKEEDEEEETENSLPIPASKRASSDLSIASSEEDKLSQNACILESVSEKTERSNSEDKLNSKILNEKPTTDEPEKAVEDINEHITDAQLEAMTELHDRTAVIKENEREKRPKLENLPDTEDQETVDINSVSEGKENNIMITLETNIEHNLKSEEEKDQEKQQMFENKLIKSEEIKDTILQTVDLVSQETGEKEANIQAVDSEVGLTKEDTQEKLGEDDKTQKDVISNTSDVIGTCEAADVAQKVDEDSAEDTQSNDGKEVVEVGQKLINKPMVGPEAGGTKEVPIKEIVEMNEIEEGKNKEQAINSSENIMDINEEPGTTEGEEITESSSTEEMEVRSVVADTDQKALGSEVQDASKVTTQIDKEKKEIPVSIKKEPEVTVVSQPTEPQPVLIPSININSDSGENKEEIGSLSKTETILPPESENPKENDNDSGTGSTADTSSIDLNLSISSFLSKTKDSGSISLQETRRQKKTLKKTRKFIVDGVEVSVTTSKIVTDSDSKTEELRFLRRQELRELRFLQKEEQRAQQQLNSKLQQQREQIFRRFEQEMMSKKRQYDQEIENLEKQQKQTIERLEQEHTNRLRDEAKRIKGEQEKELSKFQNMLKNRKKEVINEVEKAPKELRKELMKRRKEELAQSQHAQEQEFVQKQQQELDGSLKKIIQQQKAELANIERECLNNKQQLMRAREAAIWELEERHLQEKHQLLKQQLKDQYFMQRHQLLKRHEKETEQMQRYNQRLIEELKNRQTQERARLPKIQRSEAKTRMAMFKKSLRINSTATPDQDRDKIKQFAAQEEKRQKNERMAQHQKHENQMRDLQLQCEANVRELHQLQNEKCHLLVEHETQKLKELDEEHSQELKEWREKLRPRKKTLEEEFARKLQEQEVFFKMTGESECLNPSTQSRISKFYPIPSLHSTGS
Sequence of MUSK (O15146 whole entry): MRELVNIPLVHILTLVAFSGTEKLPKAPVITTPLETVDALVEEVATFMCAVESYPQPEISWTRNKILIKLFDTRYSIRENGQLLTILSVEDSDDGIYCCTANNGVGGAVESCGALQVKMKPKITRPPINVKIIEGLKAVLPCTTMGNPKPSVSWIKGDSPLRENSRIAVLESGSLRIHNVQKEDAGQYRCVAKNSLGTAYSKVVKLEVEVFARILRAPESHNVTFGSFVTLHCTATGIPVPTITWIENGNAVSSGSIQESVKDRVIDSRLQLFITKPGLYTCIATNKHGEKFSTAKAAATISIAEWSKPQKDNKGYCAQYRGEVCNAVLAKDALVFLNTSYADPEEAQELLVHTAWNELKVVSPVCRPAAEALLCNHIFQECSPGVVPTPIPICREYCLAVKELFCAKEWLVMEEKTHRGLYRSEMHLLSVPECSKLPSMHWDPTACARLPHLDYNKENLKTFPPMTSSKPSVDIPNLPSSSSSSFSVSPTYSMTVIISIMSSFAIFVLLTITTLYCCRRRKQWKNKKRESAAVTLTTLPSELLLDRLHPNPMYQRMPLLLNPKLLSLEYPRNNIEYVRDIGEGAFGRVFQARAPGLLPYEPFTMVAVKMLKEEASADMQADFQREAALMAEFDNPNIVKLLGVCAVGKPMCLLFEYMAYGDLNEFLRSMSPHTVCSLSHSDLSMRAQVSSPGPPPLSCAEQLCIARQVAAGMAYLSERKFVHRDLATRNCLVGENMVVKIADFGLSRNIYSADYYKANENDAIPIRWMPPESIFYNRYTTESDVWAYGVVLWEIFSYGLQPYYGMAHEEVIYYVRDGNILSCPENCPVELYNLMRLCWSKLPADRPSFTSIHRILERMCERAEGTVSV
Sequence of CSNK1A1L (Q8N752 whole entry): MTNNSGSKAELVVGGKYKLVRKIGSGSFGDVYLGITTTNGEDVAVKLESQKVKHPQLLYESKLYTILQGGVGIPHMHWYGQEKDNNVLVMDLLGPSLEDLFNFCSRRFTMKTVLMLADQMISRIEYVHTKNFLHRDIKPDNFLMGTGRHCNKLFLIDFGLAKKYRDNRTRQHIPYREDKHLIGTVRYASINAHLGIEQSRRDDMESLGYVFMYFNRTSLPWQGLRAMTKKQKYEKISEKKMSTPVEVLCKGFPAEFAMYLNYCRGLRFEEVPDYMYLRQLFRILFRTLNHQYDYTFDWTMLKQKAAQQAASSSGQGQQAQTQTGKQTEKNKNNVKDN
Sequence of IRAK3 (Q9Y616 whole entry): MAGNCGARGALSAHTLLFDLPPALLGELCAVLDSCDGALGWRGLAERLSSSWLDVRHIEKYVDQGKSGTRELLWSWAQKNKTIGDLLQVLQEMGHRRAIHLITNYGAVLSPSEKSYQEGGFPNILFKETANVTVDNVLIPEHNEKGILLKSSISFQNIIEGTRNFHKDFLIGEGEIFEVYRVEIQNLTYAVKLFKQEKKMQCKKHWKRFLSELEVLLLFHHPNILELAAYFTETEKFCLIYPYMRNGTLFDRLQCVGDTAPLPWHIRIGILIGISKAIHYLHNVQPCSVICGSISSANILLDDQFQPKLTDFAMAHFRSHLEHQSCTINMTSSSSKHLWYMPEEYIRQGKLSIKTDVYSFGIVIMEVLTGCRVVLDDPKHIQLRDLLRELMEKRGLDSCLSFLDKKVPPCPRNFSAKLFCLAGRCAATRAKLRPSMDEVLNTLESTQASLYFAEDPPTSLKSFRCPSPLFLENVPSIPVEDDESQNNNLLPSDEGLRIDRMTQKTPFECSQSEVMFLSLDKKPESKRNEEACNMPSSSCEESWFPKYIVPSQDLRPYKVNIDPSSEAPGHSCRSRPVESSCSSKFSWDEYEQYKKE

SMILES | remaining binding at 10 µM (CSNK1G1) | remaining binding at 10 µM (OSR1) | remaining binding at 10 µM (PIK3CA(E545K)) | remaining binding at 10 µM (EGFR(T790M)) | remaining binding at 10 µM (SLK) | remaining binding at 10 µM (LKB1) | remaining binding at 10 µM (LTK) | remaining binding at 10 µM (TGFBR1) | remaining binding at 10 µM (MYO3B) | remaining binding at 10 µM (TNNI3K) | remaining binding at 10 µM (TNK2) | remaining binding at 10 µM (YANK1) | remaining binding at 10 µM (CSNK1A1L) | remaining binding at 10 µM (DYRK1A) | remaining binding at 10 µM (MERTK) | remaining binding at 10 µM (HCK) | remaining binding at 10 µM (EPHA4) | remaining binding at 10 µM (EGFR(L747-T751del,Sins)) | remaining binding at 10 µM (IRAK3) | remaining binding at 10 µM (BMPR1B) | other results
COc1ccc(-c2cnccc2-c2cnc(NC(=O)C(C)C)s2)c(C(F)(F)F)c1 [CRT0105446, N-{5-[3-(4-Methoxy-2-trifluoromethyl-phenyl)-pyridin-4-yl]-hiazol-2-yl}-isobutyramide] | 94% | 100% | 97% | 78% | 100% | 100% | 100% | 99% | 100% | 93% | 91% | 69% | 96% | 76% | 69% | 100% | 100% | 100% | 89% | 92% | remaining binding at 10 µM (KIT(D816V)): 83%; remaining binding at 10 µM (MUSK): 96%; remaining binding at 10 µM (CSNK1E): 42%
Cc1ccc(-c2cnccc2-c2cnc(Nc3ccc(O)cc3)s2)c(Cl)c1 [CRT0105950, 4-{5-[3-(2-Chloro-4-methyl-phenyl)-pyridin-4-yl]-thiazol-2-ylamino}-phenol] | 82% | 84% | 100% | 63% | 95% | 79% | 100% | 74% | 90% | 43% | 25% | 88% | 74% | 30% | 0.45% | 94% | 94% | 68% | 8.1% | 29% | remaining binding at 10 µM (KIT(D816V)): 2.8%; remaining binding at 10 µM (MUSK): 18%; remaining binding at 10 µM (CSNK1E): 11%

From article PMC4770715, “LIM kinase inhibitors disrupt mitotic microtubule organization and impair tumor cell proliferation” (Oncotarget, 2015)
